US6673345B2, “Anti-parasite astacin metalloendopeptidase antibodies” (Heska Corporation, priority 1994, dated 2004)
Entries after “also recorded” stand apart in the source; their conditions may differ.

Experiments:
astacin = astacin (Astacus astacus, UniProt P07584); settings: cited from earlier work
D. immitis larvae (L3) = assay: Effect of protease inhibitors on D. immitis larval molting in culture; assay type: cell-based, Dirofilaria immitis; settings: for % reduction (of molt versus control): 72 hours; for % molt: L3 in NI medium, evaluated at 72 hours, control 82.6; for Observed movement and condition of treated larvae compared to controls: observed daily throughout the study; for Effect on ability of larvae to molt (in words): treatment of L3, ANOVA overall P=0.0001
[1] = system: ES proteins displaying metalloprotease activity (about 60 kD, about 95 kD, at least about 200 kD); settings: 2 mM EDTA in reaction buffer, about 37° C., 66 hours

astacin, sequence (P07584 50-249 limits assumed): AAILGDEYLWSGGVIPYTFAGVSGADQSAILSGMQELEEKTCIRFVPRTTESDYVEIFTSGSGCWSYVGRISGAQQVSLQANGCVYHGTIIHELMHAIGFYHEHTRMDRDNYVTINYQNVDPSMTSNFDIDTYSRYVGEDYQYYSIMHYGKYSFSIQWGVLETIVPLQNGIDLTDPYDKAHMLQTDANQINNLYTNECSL

Molecule	Inhibition of astacin activity (astacin)	% reduction (of molt versus control) (D. immitis larvae (L3); 1.0 mM inhibitor)	% molt (D. immitis larvae (L3); 1.0 mM inhibitor)	% reduction (of molt versus control) (D. immitis larvae (L3); 2.5 mM inhibitor)	% molt (D. immitis larvae (L3); 2.5 mM inhibitor)	% reduction (of molt versus control) (D. immitis larvae (L3); 5.0 mM inhibitor)	% molt (D. immitis larvae (L3); 5.0 mM inhibitor)	Observed movement and condition of treated larvae compared to controls (D. immitis larvae (L3))	Effect on ability of larvae to molt (in words) (D. immitis larvae (L3))	Inhibition of ES metalloprotease (collagenase) activity [1]
TIMP1: Tissue inhibitor of metalloproteinases, protein inhibitor of zinc endopeptidases	do not demonstrate inhibitory activity									
CC(C)C[C@H](NP(=O)(O)O[C@@H]1O[C@@H](C)[C@H](O)[C@@H](O)[C@H]1O)C(=O)N[C@@H](Cc1c[nH]c2ccccc12)C(=O)O [Phosphoramidon]		48.4%	42.6%	85.1%	12.3%	100.0%	0.0%	very active; also recorded: in poor shape by the end of the study	significantly reduces the ability of the larvae to molt	
CC(C)C[C@H](NC(=O)[C@@H](O)[C@H](N)Cc1ccccc1)C(=O)O [Bestatin]		27.3%	60.0%	57.9%	34.8%	94.1%	4.9%	moved much more slowly	significantly reduces the ability of the larvae to molt	
O=C(O)CN(CCN(CC(=O)O)CC(=O)O)CC(=O)O [EDTA, ethylene diamine tetraacetic acid]	inhibited									completely inhibited
c1cnc2c(c1)ccc1cccnc12 [1,10-phenanthroline]	inhibited									
